≈ marks a conversion by molar mass, not a printed value. One block for each compound: values may come before it.
How the values were obtained:
Experiment in all cases: ≥ marks a high value that may be exact or a test limit, other limits are often not marked, values filed in µg/mL are converted to µM
[1] = system: Bacillus subtilis PCI 219
[2] = system: Escherichia coli NIHJ JC-2
[3] = system: Pseudomonas aeruginosa U-31
[4] = system: Staphylococcus aureus FDA 209P
[5] = system: Bacillus anthracis Sterne 34F2
[6] = system: Bacillus subtilis var. niger ATCC 9372
[7] = system: Escherichia coli K91BK
[8] = system: Carnobacterium mobile
[9] = system: Fusarium oxysporum
[10] = system: Bacillus megaterium KCTC 1096
[11] = system: Bacillus subtilis KCTC 1918
[12] = system: Escherichia coli KCTC 1682
[13] = system: Proteus vulgaris
[14] = system: Pseudomonas aeruginosa KCTC 1637
[15] = system: Staphylococcus aureus KCTC 1621

MIC [1]: ≥ 45.4 µM
MIC [2]: ≥ 45.4 µM
MIC [3]: ≥ 45.4 µM
MIC [4]: ≥ 45.4 µM
SMILES: CC(C)C[C@H](NC(=O)[C@H](CC(C)C)NC(=O)[C@H](CC(C)C)NC(=O)[C@H](CCCCN)NC(=O)[C@H](CC(C)C)NC(=O)[C@H](CC(C)C)NC(=O)[C@H](CCCCN)NC(=O)[C@H](CC(C)C)NC(=O)[C@H](Cc1c[nH]c2ccccc12)NC(=O)[C@H](CC(C)C)NC(=O)[C@H](CCCCN)NC(=O)[C@H](CC(C)C)NC(=O)[C@H](CC(C)C)NC(=O)[C@H](CC(C)C)NC(=O)[C@H](CCCCN)NC(=O)[C@H](CC(C)C)NC(=O)[C@H](CC(C)C)NC(=O)[C@@H](N)CCCCN)C(=O)O [KLLKLLLKLWLKLLKLLL]

SMILES: CC(=O)N[C@@H](CCCCN)C(=O)N[C@@H](Cc1c[nH]c2ccccc12)C(=O)N[C@@H](CCCCN)C(=O)N[C@@H](CCCCN)C(=O)N[C@@H](CC(C)C)C(=O)N1CCC[C@H]1C(=O)N[C@@H](CCCCN)C(=O)N[C@@H](CCCCN)C(=O)N[C@@H](CC(C)C)C(=O)N[C@@H](CC(C)C)C(=O)N[C@@H](CCCCN)C(=O)N[C@@H](CC(C)C)C(=O)N[C@@H](CC(C)C)C(N)=O [KWKKLPKKLLKLL]
MIC [5]: ≥ 100 µM
MIC [6]: 8.84 µM (≈ 14.8 µg/mL)
MIC [7]: ≥ 100 µM

MIC [8]: 0.05 µM (≈ 0.103 µg/mL)
MIC [9]: 1 µM (≈ 2.05 µg/mL)
SMILES: CSCC[C@H](N)C(=O)N[C@@H](C)C(=O)N[C@@H](CO)C(=O)N[C@@H](CCCN=C(N)N)C(=O)N[C@@H](C)C(=O)N[C@@H](C)C(=O)NCC(=O)N[C@@H](CC(C)C)C(=O)N[C@@H](C)C(=O)N[C@@H](C)C(=O)N[C@@H](CCCN=C(N)N)C(=O)N[C@@H](CC(C)C)C(=O)N[C@@H](C)C(=O)N[C@@H](CCCN=C(N)N)C(=O)N[C@@H](CC(C)C)C(=O)N[C@@H](C)C(=O)N[C@@H](CC(C)C)C(=O)N[C@@H](CCCN=C(N)N)C(=O)N[C@@H](C)C(=O)N[C@@H](CC(C)C)C(=O)O [MASRAAGLAARLARLALRAL]

MIC [10]: 1.56 µM (≈ 2.85 µg/mL)
MIC [11]: 0.78 µM (≈ 1.42 µg/mL)
MIC [12]: 6.25 µM (≈ 11.4 µg/mL)
MIC [13]: 12.5 µM (≈ 22.8 µg/mL)
MIC [14]: 3.12 µM (≈ 5.7 µg/mL)
MIC [15]: 3.12 µM (≈ 5.7 µg/mL)
SMILES: CC[C@H](C)[C@H](NC(=O)[C@H](CCCCN)NC(=O)[C@H](CCCCN)NC(=O)[C@@H](N)Cc1c[nH]c2ccccc12)C(=O)N1CCC[C@H]1C(=O)N[C@@H](CCCCN)C(=O)N[C@@H](Cc1ccccc1)C(=O)N[C@@H](CC(C)C)C(=O)N[C@@H](Cc1cnc[nH]1)C(=O)N[C@@H](CC(C)C)C(=O)N[C@@H](CC(C)C)C(=O)N[C@@H](CCCCN)C(=O)N[C@@H](CCCCN)C(=O)N[C@@H](Cc1ccccc1)C(N)=O [WKKIPKFLHLLKKF]
